The term IC50 denotes the point on the concentration scale where inhibition reaches its midpoint.

The structures appear in SMILES notation.

T1 sequence (P08581 1078-1337): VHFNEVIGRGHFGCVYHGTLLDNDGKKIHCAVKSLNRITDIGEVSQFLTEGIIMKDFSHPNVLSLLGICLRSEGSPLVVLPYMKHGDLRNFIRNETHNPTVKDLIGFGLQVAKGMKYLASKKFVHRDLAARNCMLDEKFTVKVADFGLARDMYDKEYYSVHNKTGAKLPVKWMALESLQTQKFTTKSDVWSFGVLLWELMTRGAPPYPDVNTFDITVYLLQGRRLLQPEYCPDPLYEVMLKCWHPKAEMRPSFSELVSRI
T2 sequence (P35968 806-1356): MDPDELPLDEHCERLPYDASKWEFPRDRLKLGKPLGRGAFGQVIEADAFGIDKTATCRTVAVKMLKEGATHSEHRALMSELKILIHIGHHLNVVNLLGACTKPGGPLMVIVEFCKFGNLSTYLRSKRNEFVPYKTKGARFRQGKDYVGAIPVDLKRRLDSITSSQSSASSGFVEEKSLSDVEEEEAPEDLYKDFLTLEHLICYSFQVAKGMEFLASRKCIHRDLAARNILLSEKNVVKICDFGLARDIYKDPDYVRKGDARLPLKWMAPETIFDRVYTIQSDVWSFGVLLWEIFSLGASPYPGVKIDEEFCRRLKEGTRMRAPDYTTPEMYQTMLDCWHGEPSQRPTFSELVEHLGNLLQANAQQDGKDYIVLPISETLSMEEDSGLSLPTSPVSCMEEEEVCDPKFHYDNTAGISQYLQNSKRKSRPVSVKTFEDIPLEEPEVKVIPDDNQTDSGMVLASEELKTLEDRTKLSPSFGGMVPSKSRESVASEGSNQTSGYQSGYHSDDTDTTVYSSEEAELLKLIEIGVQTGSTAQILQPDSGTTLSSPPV

One test has as its target T1, recombinant human c-Met/HGF receptor (Homo sapiens, UniProt P08581).
T1 construct: His tag (histidine tag from pBlueBacHis2A); made in house; host or cells: Hi-5 cells (Trichoplusia ni), recombinant baculovirus
Description: In vitro receptor tyrosine kinase assay (DELFIA), c-Met/HGF receptor. Type of test: biochemical. The conditions noted are these: Table 31; ATP 10 uM, enzyme 25 nM; read-out: CMet ic50.
Turning to `CNC(=O)N1CCN(Cc2ccc(-c3cc4nccc(Oc5ccc(NC(=S)NC(=O)Cc6ccc(F)cc6)cc5F)c4s3)cc2)CC1`, the IC50 is less than 50 nM.
The same measure, in the same setting: the result for `C#Cc1cc(F)ccc1CC(=O)NC(=S)Nc1ccc(Oc2ccnc3cc(-c4ccc(CN5CCN(C)CC5)cc4)sc23)c(F)c1` reads less than 50 nM.
Still for that read-out and setting: in the case of `C#Cc1cc(F)ccc1CC(=O)NC(=S)Nc1ccc(Oc2ccnc3cc(-c4cn(CCN5CCCC5)cn4)sc23)c(F)c1` it was less than 50 nM; in that of `COCCNCc1ccc(-c2cc3nccc(Oc4ccc(NC(=S)NC(=O)Cc5ccc(F)cc5)cc4F)c3s2)cc1`, less than 50 nM; in that of `C#Cc1cc(F)ccc1CC(=O)NC(=S)Nc1ccc(Oc2ccnc3cc(C4=CCN(C)CC4)sc23)c(F)c1`, less than 50 nM.
The same measure, in the same setting: the result for `CCn1cc(-c2cc3nccc(Oc4ccc(NC(=S)NC(=O)Cc5ccccc5)cc4F)c3s2)nn1` reads less than 50 nM; that for `C#Cc1cccc(F)c1CC(=O)NC(=S)Nc1ccc(Oc2ccnc3cc(-c4cn(C)cn4)sc23)c(F)c1`, less than 50 nM; that for `C#Cc1ccccc1CC(=O)NC(=S)Nc1ccc(Oc2ccnc3cc(-c4ccc(CNCCOC)cn4)sc23)c(F)c1`, less than 50 nM.
On to `C#Cc1ccccc1CC(=O)NC(=S)Nc1ccc(Oc2ccnc3cc(-c4cccc[n+]4[O-])sc23)c(F)c1`, for which the IC50 is less than 50 nM.
Still for that read-out and setting: the result for `O=C(Cc1ccc(F)cc1)NC(=S)Nc1ccc(Oc2ccnc3cc(-c4cccc[n+]4[O-])sc23)c(F)c1` reads less than 50 nM; that for `COCCN(CCOC)Cc1cccc(-c2cc3nccc(Oc4ccc(NC(=S)NC(=O)Cc5ccc(F)cc5)cc4F)c3s2)c1`, less than 50 nM; that for `CN(CCO)Cc1ccc(-c2cc3nccc(Oc4ccc(NC(=S)NC(=O)Cc5ccc(F)cc5)cc4F)c3s2)nc1`, less than 50 nM.

A further test addresses T2, VEGF receptor KDR (Homo sapiens, UniProt P35968).
T2 construct: made in house; host or cells: Sf9 cells (Spodoptera frugiperda), recombinant baculovirus
Description: In vitro receptor tyrosine kinase assay (DELFIA), VEGF receptor KDR. Format: biochemical. The conditions noted are these: Table 31; ATP 0.6 uM, enzyme 5 nM; read-out: VEGFR IC50. An excerpt:
In Vitro Receptor Tyrosine Kinase Assays (c-Met/HGF receptor and VEGF Receptor KDR)
In the case of VEGF receptor KDR a 1.6-kb cDNA corresponding to the catalytic domain of VEGFR2 or KDR (Genbank accession number AF035121 amino acid 806 to 1356) was cloned into the Pst I site of the pDEST20 Gateway vector (Invitrogen) for the production of a GST-tagged version of that enzyme.
The GST-VEGFR2806-1356 protein was expressed in Sf9 cells (Spodoptera frugiperda) upon infection with recombinant baculovirus construct.
The supernatant was loaded onto a GST-agarose column (Sigma) equilibrated with PBS pH 7.3. Following a four column volume (CV) wash with PBS pH 7.3+1% Triton X-100 and 4 CV wash with buffer B (50 mM Tris pH 8.0, 20% glycerol and 100 mM NaCl), bound proteins were step eluted with 5 CV of buffer B supplemented with 5 mM DTT and 15 mM glutathion. […] Final GST-VEGFR2806-1356 protein preparations concentrations were about 0.7 mg/ml with purity approximating 70%.
As to `CNC(=O)N1CCN(Cc2ccc(-c3cc4nccc(Oc5ccc(NC(=S)NC(=O)Cc6ccc(F)cc6)cc5F)c4s3)cc2)CC1`, the IC50 is less than 50 nM.
Same read-out and setting: in the case of `C#Cc1cc(F)ccc1CC(=O)NC(=S)Nc1ccc(Oc2ccnc3cc(-c4ccc(CN5CCN(C)CC5)cc4)sc23)c(F)c1` it was less than 50 nM; in that of `C#Cc1cc(F)ccc1CC(=O)NC(=S)Nc1ccc(Oc2ccnc3cc(-c4cn(CCN5CCCC5)cn4)sc23)c(F)c1`, less than 50 nM; in that of `COCCNCc1ccc(-c2cc3nccc(Oc4ccc(NC(=S)NC(=O)Cc5ccc(F)cc5)cc4F)c3s2)cc1`, less than 50 nM.
The same measure, in the same setting: in the case of `C#Cc1cc(F)ccc1CC(=O)NC(=S)Nc1ccc(Oc2ccnc3cc(C4=CCN(C)CC4)sc23)c(F)c1` it was 50 to 250 nM.
Consider `CCn1cc(-c2cc3nccc(Oc4ccc(NC(=S)NC(=O)Cc5ccccc5)cc4F)c3s2)nn1`, for which the IC50 fell in the range of 250 to 500 nM.
Same read-out and setting: in the case of `C#Cc1cccc(F)c1CC(=O)NC(=S)Nc1ccc(Oc2ccnc3cc(-c4cn(C)cn4)sc23)c(F)c1` it was less than 50 nM; in that of `C#Cc1ccccc1CC(=O)NC(=S)Nc1ccc(Oc2ccnc3cc(-c4ccc(CNCCOC)cn4)sc23)c(F)c1`, less than 50 nM; in that of `C#Cc1ccccc1CC(=O)NC(=S)Nc1ccc(Oc2ccnc3cc(-c4cccc[n+]4[O-])sc23)c(F)c1`, less than 50 nM.
In the case of `O=C(Cc1ccc(F)cc1)NC(=S)Nc1ccc(Oc2ccnc3cc(-c4cccc[n+]4[O-])sc23)c(F)c1`, the half-maximal inhibitory concentration (IC50) was less than 50 nM.
The same measure, in the same setting: in the case of `COCCNCc1ccc(-c2cc3nccc(Oc4ccc(NC(=S)NC(=O)Cc5ccc(F)cc5)cc4F)c3s2)nc1` it was less than 50 nM.
The same measure, in the same setting: in the case of `CN(CCO)Cc1ccc(-c2cc3nccc(Oc4ccc(NC(=S)NC(=O)Cc5ccc(F)cc5)cc4F)c3s2)nc1` it was less than 50 nM.

A further test concerns A549. Description: A549 wound healing inhibition (HGF dependent migration). As to conditions: Homo sapiens, Table 31, read-out: A549 wound healing inbib IC50. Type of test: cell-based. From the text: (§1) HGF has well known activity in terms of inducing scattering and migration (wound healing) (Wells et al., Cell Motil Cytoskeleton. 2005 November 62(3):180-94; Miura et al., Urology 2001 December 58(6):1064-9; Nishimura et al., Int J. Urol. 1998 May 5(3):276-81; Wang et al., Mol Cancer Ther. 2003 November; 2(11):1085-92; and Christensen et al., Cancer Res. 2003 Nov. 1; 63(21):7345-55).
On to `CNC(=O)N1CCN(Cc2ccc(-c3cc4nccc(Oc5ccc(NC(=S)NC(=O)Cc6ccc(F)cc6)cc5F)c4s3)cc2)CC1`, for which the IC50 is less than 1000 nM.
As for `C#Cc1cc(F)ccc1CC(=O)NC(=S)Nc1ccc(Oc2ccnc3cc(-c4ccc(CN5CCN(C)CC5)cc4)sc23)c(F)c1`, the IC50 fell in the range of 1000 to 5000 nM.
For the compound `C#Cc1cc(F)ccc1CC(=O)NC(=S)Nc1ccc(Oc2ccnc3cc(-c4cn(CCN5CCCC5)cn4)sc23)c(F)c1`, the IC50 is less than 1000 nM.
The same measure, in the same setting: the result for `COCCNCc1ccc(-c2cc3nccc(Oc4ccc(NC(=S)NC(=O)Cc5ccc(F)cc5)cc4F)c3s2)cc1` reads less than 1000 nM; that for `C#Cc1cc(F)ccc1CC(=O)NC(=S)Nc1ccc(Oc2ccnc3cc(C4=CCN(C)CC4)sc23)c(F)c1`, less than 1000 nM; that for `CCn1cc(-c2cc3nccc(Oc4ccc(NC(=S)NC(=O)Cc5ccccc5)cc4F)c3s2)nn1`, less than 1000 nM.
Still for that read-out and setting: the result for `C#Cc1cccc(F)c1CC(=O)NC(=S)Nc1ccc(Oc2ccnc3cc(-c4cn(C)cn4)sc23)c(F)c1` reads less than 1000 nM; that for `C#Cc1ccccc1CC(=O)NC(=S)Nc1ccc(Oc2ccnc3cc(-c4ccc(CNCCOC)cn4)sc23)c(F)c1`, less than 1000 nM; that for `C#Cc1ccccc1CC(=O)NC(=S)Nc1ccc(Oc2ccnc3cc(-c4cccc[n+]4[O-])sc23)c(F)c1`, less than 1000 nM.
As to `O=C(Cc1ccc(F)cc1)NC(=S)Nc1ccc(Oc2ccnc3cc(-c4cccc[n+]4[O-])sc23)c(F)c1`, the IC50 was less than 1000 nM.
Turning to `COCCNCc1ccc(-c2cc3nccc(Oc4ccc(NC(=S)NC(=O)Cc5ccc(F)cc5)cc4F)c3s2)nc1`, the IC50 is less than 1000 nM.
On to `COCCN(CCOC)Cc1cccc(-c2cc3nccc(Oc4ccc(NC(=S)NC(=O)Cc5ccc(F)cc5)cc4F)c3s2)c1`, for which the IC50 is less than 1000 nM.
Turning to `COCCNCc1ccc(-c2cc3nccc(Oc4ccc(NC(=S)NC(=O)Cc5ccc(F)cc5)cc4F)c3s2)c(F)c1`, the IC50 is less than 1000 nM.
The same measure, in the same setting: in the case of `CCCNCc1ccc(-c2cc3nccc(Oc4ccc(NC(=S)NC(=O)Cc5ccc(F)cc5)cc4F)c3s2)cc1` it was less than 1000 nM.

Another test has as its system DU145. Description: DU145 scattering inhibition (HGF dependent scattering). The conditions noted are these: Homo sapiens, DU-145, Table 31, read-out: DU145 scattering inhib IC50. Type of test: cell-based.
Text: as §1
For the compound `CNC(=O)N1CCN(Cc2ccc(-c3cc4nccc(Oc5ccc(NC(=S)NC(=O)Cc6ccc(F)cc6)cc5F)c4s3)cc2)CC1`, the IC50 is less than 1000 nM.
As to `C#Cc1cc(F)ccc1CC(=O)NC(=S)Nc1ccc(Oc2ccnc3cc(-c4ccc(CN5CCN(C)CC5)cc4)sc23)c(F)c1`, the IC50 was less than 1000 nM.
Same read-out and setting: in the case of `C#Cc1cc(F)ccc1CC(=O)NC(=S)Nc1ccc(Oc2ccnc3cc(-c4cn(CCN5CCCC5)cn4)sc23)c(F)c1` it was less than 1000 nM; in that of `COCCNCc1ccc(-c2cc3nccc(Oc4ccc(NC(=S)NC(=O)Cc5ccc(F)cc5)cc4F)c3s2)cc1`, less than 1000 nM; in that of `C#Cc1cc(F)ccc1CC(=O)NC(=S)Nc1ccc(Oc2ccnc3cc(C4=CCN(C)CC4)sc23)c(F)c1`, less than 1000 nM.
Same read-out and setting: in the case of `CCn1cc(-c2cc3nccc(Oc4ccc(NC(=S)NC(=O)Cc5ccccc5)cc4F)c3s2)nn1` it was less than 1000 nM; in that of `C#Cc1cccc(F)c1CC(=O)NC(=S)Nc1ccc(Oc2ccnc3cc(-c4cn(C)cn4)sc23)c(F)c1`, less than 1000 nM.
Still for that read-out and setting: the result for `C#Cc1ccccc1CC(=O)NC(=S)Nc1ccc(Oc2ccnc3cc(-c4ccc(CNCCOC)cn4)sc23)c(F)c1` reads less than 1000 nM; that for `C#Cc1ccccc1CC(=O)NC(=S)Nc1ccc(Oc2ccnc3cc(-c4cccc[n+]4[O-])sc23)c(F)c1`, less than 1000 nM.
Consider `O=C(Cc1ccc(F)cc1)NC(=S)Nc1ccc(Oc2ccnc3cc(-c4cccc[n+]4[O-])sc23)c(F)c1`, for which the half-inhibitory concentration (IC50) was less than 1000 nM.
As for `COCCNCc1ccc(-c2cc3nccc(Oc4ccc(NC(=S)NC(=O)Cc5ccc(F)cc5)cc4F)c3s2)nc1`, the IC50 is less than 1000 nM.
For the compound `COCCN(CCOC)Cc1cccc(-c2cc3nccc(Oc4ccc(NC(=S)NC(=O)Cc5ccc(F)cc5)cc4F)c3s2)c1`, the IC50 was less than 1000 nM.
Regarding `CN(CCO)Cc1ccc(-c2cc3nccc(Oc4ccc(NC(=S)NC(=O)Cc5ccc(F)cc5)cc4F)c3s2)nc1`, the IC50 is less than 1000 nM.
Same read-out and setting: the result for `COCCNCc1ccc(-c2cc3nccc(Oc4ccc(NC(=S)NC(=O)Cc5ccc(F)cc5)cc4F)c3s2)c(F)c1` reads less than 1000 nM; that for `CCCNCc1ccc(-c2cc3nccc(Oc4ccc(NC(=S)NC(=O)Cc5ccc(F)cc5)cc4F)c3s2)cc1`, less than 1000 nM.
